These results are taken from patent US20240316202A1, “NOVEL PHOTOSENSITIZER” (The University of Tokyo, priority 2020, published 2024).

Data set [1] can be described thus: Optical characteristics (UV-Vis absorption and fluorescence spectroscopy). In kind it is physicochemical. The conditions noted are these: physiological conditions. On the procedure:
UV-visible spectra were obtained with Shimadzu UV-1800. A fluorescence spectroscopic test was performed with Hitachi F7000.
The slit width in the fluorescence measurement was 1 nm for both excitation and light emission. The photomultiplier tube voltage was 400 V. The area under the light emission spectrum of the test sample and the spectral area of the standard sample were determined and calculated by the following equation to determine a relative fluorescence quantum yield (Φfl).
The optical characteristics of the probe (1 μM) were examined in a 0.1 M sodium phosphate buffer containing 0.1% DMSO as a co-solvent.
Therefore, it is expected that HMRIef in which iodine is introduced into the xanthene ring site of HMRef is also placed in the same equilibrium. […] In addition, a fluorescence spectrum was also measured. […]
FIG. 3(a) illustrates the chemical structure and optical characteristics of HMRIef. FIG. 3(b) illustrates the measurement results of the absorption spectrum and fluorescence spectrum of HMRIef (measurement was performed in a 0.1 M sodium phosphate buffer containing 0.1% DMSO as a co-solvent. dye concentration: 1 μM (absorption) or 10 μM (fluorescence)). FIG. 3(c) illustrates the measurement results of the absorption spectra measured in 0.1 M sodium phosphate buffers with various pH containing 0.1% DMSO as a co-solvent (dye concentration: 1 μM). […]

Data set [2] can be described thus: Detection of singlet oxygen by near infrared spectroscopy. To be noted: PBS pH 7.4, 0.1% DMSO, dye 1 μM, 508 nm excitation; mean±S.D. The format is physicochemical. On the procedure: Singlet oxygen was detected by measuring ^1O2 light emission near 1,270 nm by laser irradiation using a near infrared emission spectrometer (Fluorolog-3, Horiba, Japan). A dye was dissolved in phosphate buffered saline (PBS) containing 0.1% DMSO as a co-solvent and irradiation was performed with light at a wavelength of 508 nm. In order to calculate a ^1O2 quantum yield, the light emission signal was integrated for each wavelength for 7 seconds. A singlet oxygen generation quantum yield was calculated using Rose bengal (0.75) (DeRosa, M. C. & Crutchley, R. J. Photosensitized singlet oxygen and its applications. Coordination Chemistry Reviews 233-234, 351-371, doi:10.1016/S0010-8545(02)00034-6 (2002)) in PBS as a reference.
Whether HMRIef had photosensitizing ability was examined. In the examination, the singlet oxygen generation ability was evaluated by the light emission intensity at […] under light irradiation conditions using the property that singlet oxygen (^1O2) generated by energy transfer from the photoexcited probe to oxygen molecules emits near-infrared light having a peak top near 1,270 nm.
The right view of FIG. 6 illustrates the light emission spectrum of ^1O2 by 508 nm laser excitation. The dashed line was taken as the background. The spectra were measured in PBS with pH 7.4 containing 0.1% DMSO as a co-solvent (dye concentration: 1 μM). […]

For data set [3] the following is noted: in PBS, used as reference; cited from earlier work.

Consider `O=c1ccc2c(-c3ccccc3CO)c3ccc(NCC(F)(F)F)cc3oc-2c1` [HMRef], for which, in data set [1], the “fluorescence quantum yield (Φfl)” value is 0.78. The “singlet oxygen generation quantum yield” value in data set [2] was determined as 0.05±0.14.

On to `O=C([O-])c1c(Cl)c(Cl)c(Cl)c(Cl)c1-c1c2cc(I)c(=O)c(I)c-2oc2c(I)c([O-])c(I)cc12.[Na+].[Na+]` [Rose bengal], for which, in data set [3], the “singlet oxygen generation quantum yield (reference value)” value was 0.75.
